Key:
[1] = system: DU145; assay: monolayer proliferation assay (modified propidium iodide assay), DU145; assay type: cell-based, human; conditions: DU145 (Prostate - PTEN positive), 4 days continuous exposure
Method: (§1) In vitro evaluation of compounds for anticancer activity in a panel of human tumour cell lines in a monolayer proliferation assay was carried out at the Oncotest Testing Facility, Institute for Experimental Oncology, Oncotest GmbH, Freiburg.
(§2) The Oncotest cell lines were established from human tumor xenografts as described by Roth et al., (1999). The origin of the donor xenografts was described by Fiebig et al., (1999). Other cell lines are either obtained from the NCI (DU145, MCF-7) or purchased from DSMZ, Braunschweig, Germany.
(§3) All cell lines, unless otherwise specified, were grown at 37° C. in a humidified atmosphere (95% air, 5% CO2) in a ‘ready-mix’ medium containing RPMI 1640 medium, 10% fetal calf serum, and 0.1 mg/mL gentamicin (PAA, Cölbe, Germany).
(§4) A modified propidium iodide assay was used to assess the effects of the test compound(s) on the growth of the human tumour cell lines (Dengler et al., (1995)).
(§5) Briefly, cells were harvested from exponential phase cultures by trypsinization, counted and plated in 96 well flat-bottomed microtitre plates at a cell density dependent on the cell line (5-10.000 viable cells/well). […] After thawing the plates, fluorescence was measured using the Cytofluor 4000 microplate reader (excitation 530 nm, emission 620 nm), giving a direct relationship to the total number of viable cells.
(§6) Growth inhibition is expressed as treated/control×100 (% T/C). […]

[2] = system: MEXF 394NL; assay: monolayer proliferation assay (modified propidium iodide assay), MEXF 394NL; assay type: cell-based, human; conditions: MEXF 394NL (Melanoma), 4 days continuous exposure
Method: as §1, §2, §3, §4, §5, §6

[3] = system: MCF-7; assay: monolayer proliferation assay (modified propidium iodide assay), MCF-7; assay type: cell-based, human; conditions: MCF-7 (Breast), 4 days continuous exposure
Method: as §1, §2, §3, §4, §5, §6

[4] = system: LXF 1121L; assay: monolayer proliferation assay (modified propidium iodide assay), LXF 1121L; assay type: cell-based, human; conditions: LXF 1121L (Lung, large cell ca), 4 days continuous exposure
Method: as §1, §2, §3, §4, §5, §6

[5] = system: CXF HT29; assay: monolayer proliferation assay (modified propidium iodide assay), CXF HT29; assay type: cell-based, human; conditions: CXF HT29 (Colon), 4 days continuous exposure
Method: as §1, §2, §3, §4, §5, §6

[6] = system: CNXF 498NL; assay: monolayer proliferation assay (modified propidium iodide assay), CNXF 498NL; assay type: cell-based, human; conditions: CNXF 498NL (CNS), 4 days continuous exposure
Method: as §1, §2, §3, §4, §5, §6

[7] = biological target: terminal deoxynucleotidyl transferase (Homo sapiens, UniProt P04053); conditions: cited from earlier work
Chain of terminal deoxynucleotidyl transferase (P04053 whole entry, species assumed): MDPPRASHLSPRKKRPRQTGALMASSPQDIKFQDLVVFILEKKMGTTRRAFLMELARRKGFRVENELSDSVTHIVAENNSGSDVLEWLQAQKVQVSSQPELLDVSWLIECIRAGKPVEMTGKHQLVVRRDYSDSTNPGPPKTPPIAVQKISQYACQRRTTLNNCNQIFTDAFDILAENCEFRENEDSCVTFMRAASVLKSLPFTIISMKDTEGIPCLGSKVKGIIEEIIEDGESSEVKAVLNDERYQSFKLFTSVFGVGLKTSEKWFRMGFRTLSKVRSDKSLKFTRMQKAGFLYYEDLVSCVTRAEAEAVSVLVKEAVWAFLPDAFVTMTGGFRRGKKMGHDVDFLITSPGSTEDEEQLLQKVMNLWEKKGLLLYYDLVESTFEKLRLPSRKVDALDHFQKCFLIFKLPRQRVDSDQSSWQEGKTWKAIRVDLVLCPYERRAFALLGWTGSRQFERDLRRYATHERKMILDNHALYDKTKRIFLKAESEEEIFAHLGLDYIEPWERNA

[8] = system: Reverse transcriptase; conditions: cited from earlier work

Structure (SMILES)	Test/Control (%) at drug concentration ([1]; 1 μg/mL) [%]	Test/Control (%) at drug concentration ([1]; 10 μg/mL) [%]	Test/Control (%) at drug concentration ([2]; 1 μg/mL) [%]	Test/Control (%) at drug concentration ([2]; 10 μg/mL) [%]	Test/Control (%) at drug concentration ([3]; 1 μg/mL) [%]	Test/Control (%) at drug concentration ([3]; 10 μg/mL) [%]	Test/Control (%) at drug concentration ([4]; 1 μg/mL) [%]	Test/Control (%) at drug concentration ([4]; 10 μg/mL) [%]	Test/Control (%) at drug concentration ([5]; 1 μg/mL) [%]	Test/Control (%) at drug concentration ([5]; 10 μg/mL) [%]	Test/Control (%) at drug concentration ([6]; 1 μg/mL) [%]	Test/Control (%) at drug concentration ([6]; 10 μg/mL) [%]	terminal deoxynucleotidyl transferase activity inhibition [7]	Reverse transcriptase activity inhibition [8]
CO[C@H]1[C@@H](OC)C[C@H](C)[C@@H](O)C2=CC(=O)C=C(NC(=O)/C(C)=C/C=C\[C@H](C)[C@@H](OC(N)=O)/C(C)=C/[C@@H]1C)C2=O [Compound 14, 15-O-desmethylmacbecin]	49.7	6	17	2.3	65.3	15.3	63	6	58.3	7.7	49.3	4.7	–	–
CO[C@H]1[C@@H](OC)C[C@H](C)[C@@H](OC)C2=CC(=O)C=C(NC(=O)/C(C)=C/C=C\[C@H](C)[C@@H](OC(N)=O)/C(C)=C/[C@@H]1C)C2=O [Macbecin, macbecin]	–	–	–	–	–	–	–	–	–	–	–	–	not inhibited	not inhibited
